Test results taken from patent US9005575B2, “Arg-Gly-Asp-conjugated alpha-melanocyte stimulating hormone hybrid peptide for use in diagnosing and treating melanoma, including metastatic melanoma and methods related to same” (STC.UNM, priority 2009, dated 2015).
Positions of bridges follow the written chain, without caps; N, C: chain ends. Non-standard residues stand in square brackets, D forms with d. Residues, ends and D or L forms follow the SMILES beside them.

Columns and labels:
[1] = Effect of L-lysine co-injection on renal and tumor uptakes; assay type: in vivo, C57 mice; details: 15 mg of L-lysine, 2 h post-injection; for tissue uptake at 2 h: C57, mouse, kidneys, with L-lysine, 15 mg co-injected, total radioactivity
Experimental: The effects of L-lysine co-injection on the renal uptakes of ^99mTc-RGD-Arg-(Arg^11)CCMSH and ^99mTc-RGD-Lys-(Arg^11)CCMSH was examined in B16/F1 melanoma-bearing C57 as well. Two groups of 5 mice were injected with an aqueous mixture of 0.037 MBq of ^99mTc-RGD-Arg-(Arg^11)CCMSH and 15 mg of L-lysine or an aqueous mixture of 0.037 MBq of ^99mTc-RGD-Lys-(Arg^11)CCMSH and 15 mg of L-lysine, respectively. The mice were sacrificed at 2 h post-injection, and tumors and kidneys were harvested, weighed and counted.

[2] = Urinary metabolites by HPLC; assay type: in vivo, C57 mouse; details: urine, 2 h post-injection, RP-HPLC
Experimental: (§1) Urinary metabolites of ^99mTc-RGD-Lys-(Arg^11)CCMSH were determined by injecting 3.7 MBq of ^9″Tc-RGD-Lys-(Arg^11)CCMSH into a B16/F1 melanoma-bearing C57 mouse through the tail vein. At 2 h after dose administration, the mouse was euthanized and the urine was collected. The radioactive metabolites in the urine were analyzed by injecting aliquots of urine into HPLC. A 20-minute gradient of 16-26% acetonitrile/20 mM HCl was used for the urine analysis.
as §1, with “^99mTc-RGD-Arg-(Arg^11)CCMSH” for “^99mTc-RGD-Lys-(Arg^11)CCMSH”, “^99mTc-RGD-Arg-(Arg^11)CCMSH” for “^9″Tc-RGD-Lys-(Arg^11)CCMSH”

Question: Which “Effect of L-lysine co-injection on the tumor uptake” value [1] does the source give for `CC(C)[C@H](NC(=O)[C@@H]1CCCN1C(=O)[C@H](CCCNC(=N)N)NC(=O)[C@H](CS)NC(=O)[C@H](Cc1c[nH]c2ccccc12)NC(=O)[C@H](CCCNC(=N)N)NC(=O)[C@@H](Cc1ccccc1)NC(=O)[C@H](Cc1c[nH]cn1)NC(=O)[C@H](CCC(=O)O)NC(=O)[C@H](CS)NC(=O)[C@H](CS)NC(=O)[C@H](CCCNC(=N)N)NC(=O)[C@@H]1CC(=O)N[C@@H](CCCNC(=N)N)C(=O)NCC(=O)N[C@@H](CC(=O)O)C(=O)N[C@H](Cc2ccc(O)cc2)C(=O)N1)C(N)=O` [^99mTc-RGD-Arg-(Arg^11)CCMSH, metal not drawn] (RGD[dY]DRCCEH[dF]RWCRPV-NH2; lactam N-5) here?
Answer: without affecting

Question: And the “Reduction of renal uptake by L-lysine co-injection” value [1]?
Answer: 27.7%

Question: And the tissue uptake at 2 h [1]?
Answer: 31.1 ± 6.42 %ID/g

Question: What about the “Urinary radioactivity: remained intact” value [2] of the same compound?
Answer: Approximately 73%

Question: And the “Urinary radioactivity: transformed to more lipophilic metabolite(s)” value [2]?
Answer: 27%

Question: With `CC(C)[C@H](NC(=O)[C@@H]1CCCN1C(=O)[C@H](CCCNC(=N)N)NC(=O)[C@H](CS)NC(=O)[C@H](Cc1c[nH]c2ccccc12)NC(=O)[C@H](CCCNC(=N)N)NC(=O)[C@@H](Cc1ccccc1)NC(=O)[C@H](Cc1c[nH]cn1)NC(=O)[C@H](CCC(=O)O)NC(=O)[C@H](CS)NC(=O)[C@H](CS)NC(=O)[C@H](CCCCN)NC(=O)[C@@H]1CC(=O)N[C@@H](CCCNC(=N)N)C(=O)NCC(=O)N[C@@H](CC(=O)O)C(=O)N[C@H](Cc2ccc(O)cc2)C(=O)N1)C(N)=O` [^99mTc-RGD-Lys-(Arg^11)CCMSH, metal not drawn] (RGD[dY]DKCCEH[dF]RWCRPV-NH2; lactam N-5) as the compound, how does the “Effect of L-lysine co-injection on the tumor uptake” value [1] read?
Answer: without affecting

Question: And the “Reduction of renal uptake by L-lysine co-injection” value [1]?
Answer: 52.1%

Question: And the tissue uptake at 2 h [1]?
Answer: 32.2 ± 5.98 %ID/g

Question: What about the “Urinary radioactivity: remained intact” value [2] of the same compound?
Answer: Approximately 68%

Question: What about the “Urinary radioactivity: transformed to more lipophilic metabolite(s)” value [2] of the same compound?
Answer: 32%
